The values below come from patent US7902361B2, “Pyrimidin-4-yl-3, 4-thione compounds and their use in therapy” (Cyclacel Limited, priority 2003, dated 2011).

For assay [1], the target named is T1, DYRK1A (Homo sapiens, UniProt Q13627).
T1 construct: purchased Upstate
Description: DYRK1A in vitro kinase assay. It is filed as biochemical. Particulars: recombinant human DYRK1A, 100 μM ATP. An excerpt: Dual specificity tyrosine phosphorylation regulated kinase 1A (DYRK1A) has been proposed, amongst other functions, to play a role in the regulation of glycogen metabolism in a way similar to GSK3. Some of the example compounds of the present invention were screened against recombinant human DYRK1A in vitro and the determined IC50 values are shown in Table 9. According to our current knowledge inhibition of DYRK1A will have additional positive effect on stimulation of glycogen synthase.
A 10-point titration was set up to determine the IC50 values of selected example compounds against DYRK1A. Assays were performed using 96-well microtiter plates and a final volume of 25 μL/well. Each assay contained 2.3 milliunits of DYRK1A (Upstate), 50 μM Woodtide peptide ([…], Upstate), 20 mM Tris HCl pH 8.0, 10 mM DTT, 5 mM EGTA, 1 mM NaVO3, 31 mM β-glycerophosphate, 15 mM MgCl2 supplemented with 100 μM ATP and 0.5 μCi of [γ-^32P] ATP plus or minus inhibitor in 2% DMSO. Assays were carried out for 60 minutes at 30° C. before stopping the reaction by the addition of an equal volume of 75 mM aqueous phosphoric acid. Samples were then spotted onto a p81 filterplate (Whatman) and a vacuum applied. Wells were washed 3 times with 200 μL of dilute aqueous phosphoric acid before the addition of 50 μL Microscint 40 per well. Incorporation of radioactivity was determined on a Topcount microplate scintillation counter (Packard).

Assay [2] has as its target CDK2/cyclin E (Homo sapiens, UniProt P24941). Description: Kinase assay CDK2/cyclin E. It is filed as biochemical. The following applies: Ki calculated (Cheng-Prusoff) from experimentally determined IC50 and Km,ATP; read-out: Kinase Inhibition Ki CDK2 - cyclin E. The gist of the method: (§1)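 Radiometric assays measured transfer of radioactive phosphate from ATP onto polypeptide substrates, using 2-4 μg recombinant active enzyme in buffer typically containing 25 mM β-glycerophosphate, 20 mM MOPS, 5 mM EGTA, 1 mM DTT and 1 mM Na3VO3 at pH 7.4. Reactions were stopped on ice, filtered on P81 or GF/C plates and washed with orthophosphoric acid. Incorporated radioactivity was scintillation-counted.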

The target of assay [3] is CDK2/cyclin A (Homo sapiens, UniProt P24941). Description: Kinase assay CDK2/cyclin A. It is filed as biochemical. The following applies: Ki calculated (Cheng-Prusoff) from experimentally determined IC50 and Km,ATP; read-out: Kinase Inhibition Ki CDK2 - cyclin A. The method in brief: as §1
Assay [4] concerns the target CDK7/cyclin H (Homo sapiens, UniProt P50613). Description: Kinase assay CDK7/cyclin H. The format is biochemical. The following applies: Ki calculated (Cheng-Prusoff) from experimentally determined IC50 and Km,ATP; read-out: Kinase Inhibition Ki CDK7 - cyclin H. The method in brief: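 Radiometric filter assays used recombinant kinases or complexes (2-4 μg) with appropriate polypeptide substrates in pH 7.4 β-glycerophosphate/MOPS buffer. Reactions were started with 15 mM MgCl2 and 100 μM ATP containing [γ-32P]-ATP and run at 30° C. Phosphate incorporated into substrate was counted by scintillation after washing.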

For assay [5], the system named is glycogen synthase. Description: Glycogen synthase activation in mouse adipocytes. It is filed as cell-based. The following applies: for Max FI (% to LiCl): maximum fold induction normalised to 40 mM LiCl. As for the experimental part:
3T3-L1 mouse pre-adipocytes were grown in DMEM medium supplemented with 10% foetal calf serum (FCS) and penicillin/streptomycin until fully confluent. Cell differentiation was initiated by the addition of 0.5 mM IBMX (2-isobutyl-1-methylxanthine), 0.25 μM dexamethasone and 1 μg/mL insulin into the growth media. The differentiation medium was replaced after 4 days and 7 days. After the initiation of differentiation the cells were grown for an additional 3 days in DMEM, 10% FCS and antibiotics.
HEK293 cells, mouse adipocytes or rat myotubes were treated in 10-cm Petri dishes with different concentrations of GSK3 inhibitor example compounds for 90 minutes. At the end of the treatment period the cells were washed and scraped in ice cold PBS buffer supplemented with 20 mM NaF. The cells were pelleted by centrifugation and lysed in 300 μL buffer (50 mM.HEPES pH 7.5, 10 mM EDTA, 100 mM NaF, 5 mM DTT, protease inhibitor cocktail (Sigma)). After incubation for 30 min on ice the samples were cleared by centrifugation. The activity of glycogen synthase was determined in the soluble fraction at two different concentrations of […]—low (0.1 mM) and high (10 mM). The reaction was carried out for 30 min (buffer: 50 mM Tris pH 7.8, 20 mM EDTA, 25 mM NaF, 5 mM DTT). The reaction mixture (total volume of 90 μL) contained 1% glycogen, 0.3 mM UDP-glucose and 0.06 μCi ^14C-UDP-glucose. Reaction was stopped by transfer of 70 μL to a GFC 96-well filter plate, containing 140 μL 100% ethanol and the glycogen was allowed to precipitate for 1 h at 4° C. The wells were washed 2 times with 200 μL 66% ethanol and than allowed to dry. Subsequently, 100 μL of scintillation liquid was added, and plates were sealed and counted in a Packard Topcounter. Glycogen synthase activation was calculated as the ratio between the incorporation of labelled ^14C-UDP-glucose in glycogen at low and high concentration of […] (fractional velocity).
The ability of GSK3 inhibitors to activate glycogen synthase was determined in HEK293 cells, mouse adipocytes and rat myotubed. The compounds tested activated glycogen synthase in all three cellular systems with EC50 values in the sub-micromolar to low micromolar concentration range. Most of them exceeded the stimulation induced by 40 mM LiCl (the highest compound concentration used in the assay was 20 μM).

SMILES strings stand for the structures. Like-named read-outs stand apart in the source and are kept apart here.

Sequence of CDK7/cyclin H (P50613 whole entry, species assumed): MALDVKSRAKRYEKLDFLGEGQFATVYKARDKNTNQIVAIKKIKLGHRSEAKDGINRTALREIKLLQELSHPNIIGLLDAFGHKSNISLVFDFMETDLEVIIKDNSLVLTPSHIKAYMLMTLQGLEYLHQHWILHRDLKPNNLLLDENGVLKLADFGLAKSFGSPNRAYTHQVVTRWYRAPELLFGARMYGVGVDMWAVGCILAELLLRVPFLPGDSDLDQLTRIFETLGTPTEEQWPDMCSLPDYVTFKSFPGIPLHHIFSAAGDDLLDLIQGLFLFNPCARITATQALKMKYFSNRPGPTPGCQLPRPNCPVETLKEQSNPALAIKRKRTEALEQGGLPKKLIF
Sequence of CDK7/cyclin H (P51946 whole entry partner, species assumed): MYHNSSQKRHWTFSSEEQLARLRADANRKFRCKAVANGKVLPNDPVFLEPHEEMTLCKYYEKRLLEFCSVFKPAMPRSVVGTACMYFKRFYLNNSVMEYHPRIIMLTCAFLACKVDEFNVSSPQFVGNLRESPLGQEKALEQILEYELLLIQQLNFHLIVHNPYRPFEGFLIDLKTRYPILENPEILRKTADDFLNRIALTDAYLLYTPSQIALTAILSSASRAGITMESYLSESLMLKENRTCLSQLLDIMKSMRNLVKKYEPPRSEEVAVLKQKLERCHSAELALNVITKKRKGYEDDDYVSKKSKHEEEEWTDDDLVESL

As usually defined, the IC50 is the point on the concentration scale where inhibition reaches its midpoint. A word on the Ki: it is the equilibrium dissociation constant of an inhibitor or competing ligand from its target. By EC50 is commonly meant the concentration at which the effect is half-maximal. A higher EC50 goes with weaker potency. For the compound `Cc1c(-c2ccnc(Nc3cccc(S(=O)(=O)NCCO)c3)n2)sc(=O)n1C` [Compound 75, 3-[4-(3,4-Dimethyl-2-oxo-2,3-dihydro-thiazol-5-yl)-pyrimidin-2-ylamino]-N-(2-hydroxy-ethyl)-benzenesulfonamide], in assay [1], the IC50 stood at 26 nM. Besides, the figures for the Ki in assay [2], in assay [3] and in assay [4] were 380 nM, 410 nM and 370 nM, respectively. Also, the EC50 in assay [5] (Adipocyte) was found to be 2190 ± 400 nM. Also, the “Max FI (% to LiCl)” value in assay [5] is on record as 181 % to LiCl.

For the compound `CC(=O)Nc1cc(Nc2nccc(-c3sc(=O)n(C)c3C)n2)cc(C(F)(F)F)c1` [Compound 64, N-{3-[4-(3,4-Dimethyl-2-oxo-2,3-dihydro-thiazol-5-yl)-pyrimidin-2-ylamino]-5-trifluoromethyl-phenyl}-acetamide], the IC50 in assay [1] stood at 77 nM. Also, in assay [4], the Ki was 3900 nM. This compound also showed an EC50 in assay [5] (Adipocyte) of 148 ± 70 nM. The “Max FI (% to LiCl)” value in assay [5] is on record as 143 % to LiCl.

On to `Cc1c(-c2ccnc(Nc3cc(Br)cc(C(F)(F)F)c3)n2)sc(=O)n1C` [Compound 68, 5-[2-(3-Bromo-5-trifluoromethyl-phenylamino)-pyrimidin-4-yl]-3,4-dimethyl-3H-thiazol-2-one], for which the IC50 in assay [1] is 73 nM. For the same compound, the EC50 in assay [5] (Adipocyte) turned out to be 9550 ± 7400 nM. Moreover, in assay [5], the “Max FI (% to LiCl)” value is 50 % to LiCl.

`COCCNS(=O)(=O)c1cccc(Nc2nccc(-c3sc(=O)n(C)c3C)n2)c1` [Compound 67, 3-[4-(3,4-Dimethyl-2-oxo-2,3-dihydro-thiazol-5-yl)-pyrimidin-2-ylamino]-N-(2-methoxy-ethyl)-benzenesulfonamide]: in assay [1], the IC50 turned out to be 19 nM. The Ki in assay [3] was 1300 nM; in assay [4], 360 nM. Further, the EC50 in assay [5] (Adipocyte) stood at 4830 ± 4600 nM. For the same compound, the “Max FI (% to LiCl)” value in assay [5] is recorded as 177 % to LiCl.

On to `CNc1cc(Nc2nccc(-c3sc(=O)n(C)c3C)n2)cc(C(F)(F)F)c1` [Compound 76, 3,4-Dimethyl-5-[2-(3-methylamino-5-trifluoromethyl-phenylamino)-pyrimidin-4-yl]-3H-thiazol-2-one], for which the IC50 in assay [1] worked out at 148 nM. Further, the Ki in assay [2] is 89 nM. The Ki in assay [4] is 800 nM. In addition, in assay [5], a half-maximal response (EC50) required 1110 ± 530 nM and the “Max FI (% to LiCl)” value was 196 % to LiCl.

Consider `CCNS(=O)(=O)c1cccc(Nc2nccc(-c3sc(=O)n(C)c3C)n2)c1` [Compound 62, 3-[4-(3,4-Dimethyl-2-oxo-2,3-dihydro-thiazol-5-yl)-pyrimidin-2-ylamino]-N-ethyl-benzenesulfonamide], for which the IC50 in assay [1] was 51 nM. Also, the figures for the Ki in assay [2], in assay [3] and in assay [4] were 350 nM, 610 nM and 1100 nM, respectively. In assay [5] (Adipocyte), this compound returned an EC50 of 432 ± 179 nM. Moreover, the “Max FI (% to LiCl)” value in assay [5] is 234 % to LiCl.
